Data: patent publication US8329950B2, “Process for preparation of trans 4-(3,4-Dichlorophenyl)-1,2,3,4-tetrahydro-1Napthalenamine” (Sunovion Pharmaceuticals Inc., priority 2005, dated 2012)
Several values for one entry are separate records, joined by “and”; a condition that tells them apart may be missing. Equal values may be shown once.

Legend:
mice = test: Behavioral Despair Test (Porsolt swim test) in mice; format: in vivo; details: for Immobility Duration, Mean: N = 10
[1] = molecular target: T1, functional uptake of norepinephrine (NE) (Rattus norvegicus, UniProt Q63380); test: biochemical
T1 construct: synaptosomes isolated at Cerep in a 0.32 M sucrose buffer from a male Wistar rat hypothalamus; tissue Cerep; host or cells: male Wistar rat hypothalamus synaptosomes
T1 sequence (Q63380 1-617): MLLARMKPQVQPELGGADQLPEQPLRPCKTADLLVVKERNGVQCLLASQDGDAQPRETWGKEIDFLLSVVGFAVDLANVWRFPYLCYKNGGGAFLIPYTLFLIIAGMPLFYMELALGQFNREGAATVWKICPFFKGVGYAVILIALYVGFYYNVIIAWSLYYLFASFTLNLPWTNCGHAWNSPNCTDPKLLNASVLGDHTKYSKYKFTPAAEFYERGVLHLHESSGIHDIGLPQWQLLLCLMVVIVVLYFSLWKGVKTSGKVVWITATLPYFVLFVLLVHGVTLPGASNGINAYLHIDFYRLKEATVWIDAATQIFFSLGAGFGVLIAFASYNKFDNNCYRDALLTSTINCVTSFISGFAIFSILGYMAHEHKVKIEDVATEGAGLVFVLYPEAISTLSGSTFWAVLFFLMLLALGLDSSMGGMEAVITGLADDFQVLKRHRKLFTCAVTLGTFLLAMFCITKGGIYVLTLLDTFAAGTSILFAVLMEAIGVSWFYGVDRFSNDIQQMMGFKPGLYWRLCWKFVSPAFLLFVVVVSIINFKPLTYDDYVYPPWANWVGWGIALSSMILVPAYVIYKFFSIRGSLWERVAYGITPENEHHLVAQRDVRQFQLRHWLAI
Experimental: Characterization of norepinephrine uptake is performed using synaptosomes isolated at Cerep in a 0.32 M sucrose buffer from a male Wistar rat hypothalamus. The uptake of radiolabeled norepinephrine by synaptosomes (100 μg of proteins/point) is allowed by incubating them in a deep well for 20 minutes at 37° C. in presence of test compounds and [^3H]-norepinephrine (0.1 μCi/point).
Synaptosomes and [^3H]-norepinephrine are prepared in a Krebs buffer pH 7.4 containing 25 mM NaHCO3, 11 mM glucose and 50 μM ascorbic acid. This incubation buffer is oxygenated during 5 minutes before incubation. Basal control is incubated for 20 minutes at 4° C. in order to avoid any uptake. Following this incubation the uptake is stopped by filtration through an “unifilter 96-wells GFB “Packard plate washed with Krebs buffer containing 25 mM NaHCO3 in order to eliminate the free [^3H]-norepinephrine. The radioactivity associated to the synaptosomes retained onto the unifilter corresponding to the uptake is then measured with a microplate scintillation counter Topcount, Packard using a scintillation liquid microscint 0, Packard.

[2] = molecular target: T2, functional uptake of dopamine (DA) (Rattus norvegicus, UniProt P23977); test: Dopamine functional uptake assay in rat striatum synaptosomes; format: biochemical; details: for inhibition of DA uptake: tested initially at 10 μM
T2 construct: synaptosomes isolated at Cerep in a 0.32 M sucrose buffer from a male Wistar rat striatum; tissue Cerep; host or cells: male Wistar rat striatum synaptosomes
T2 sequence (P23977 whole entry): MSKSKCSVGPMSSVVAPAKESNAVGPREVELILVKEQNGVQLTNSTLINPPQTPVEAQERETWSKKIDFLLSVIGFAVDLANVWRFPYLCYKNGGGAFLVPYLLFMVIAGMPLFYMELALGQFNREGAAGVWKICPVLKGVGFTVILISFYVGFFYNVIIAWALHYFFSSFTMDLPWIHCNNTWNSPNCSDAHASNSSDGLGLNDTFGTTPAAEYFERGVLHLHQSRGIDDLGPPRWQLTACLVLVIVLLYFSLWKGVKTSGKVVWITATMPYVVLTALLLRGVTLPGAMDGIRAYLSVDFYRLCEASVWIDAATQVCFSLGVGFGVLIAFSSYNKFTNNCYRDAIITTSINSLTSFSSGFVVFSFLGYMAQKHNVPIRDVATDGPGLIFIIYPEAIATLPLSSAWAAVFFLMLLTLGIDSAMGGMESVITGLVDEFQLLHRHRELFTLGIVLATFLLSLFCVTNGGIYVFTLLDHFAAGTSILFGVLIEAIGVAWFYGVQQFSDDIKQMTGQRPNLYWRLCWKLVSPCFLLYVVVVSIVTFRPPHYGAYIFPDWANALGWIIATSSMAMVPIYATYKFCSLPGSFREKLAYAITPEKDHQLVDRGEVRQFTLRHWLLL
Experimental: Characterization of dopamine uptake is performed using synaptosomes isolated at Cerep in a 0.32 M sucrose buffer from a male Wistar rat striatum. The uptake of radiolabelled dopamine by synaptosomes (20 μg of proteins/point) is allowed by incubating them in a deep well for 15 minutes at 37° C. in presence of test compounds and [^3H]-dopamine (0.1 μCi/point).
Synaptosomes and [^3H]-dopamine are prepared in a Krebs buffer pH 7.4 containing 25 mM NaHCO3, 11 mM glucose and 50 μM ascorbic acid. This incubation buffer is oxygenated during 5 minutes before incubation. Basal control is incubated for 15 minutes at 4° C. in order to avoid any uptake. Following this incubation the uptake is stopped by filtration through an “unifilter 96-wells GFB “Packard plate washed with Krebs buffer containing 25 mM NaHCO3 in order to eliminate the free [^3H]-dopamine. The radioactivity associated to the synaptosomes retained onto the unifilter corresponding to the uptake is then measured with a microplate scintillation counter Topcount, Packard using a scintillation liquid microscint 0, Packard.

[3] = molecular target: T3, functional uptake of serotonin (5-HT) (Rattus norvegicus, UniProt P31652); test: Serotonin functional uptake assay in rat synaptosomes; format: biochemical; details: Table 6; tested initially at 10 μM
T3 construct: synaptosomes isolated in a 0.32 M sucrose buffer from a male Wistar rat cortex; from tissue; host or cells: male Wistar rat cortex (whole brain) synaptosomes
T3 sequence (P31652 whole entry): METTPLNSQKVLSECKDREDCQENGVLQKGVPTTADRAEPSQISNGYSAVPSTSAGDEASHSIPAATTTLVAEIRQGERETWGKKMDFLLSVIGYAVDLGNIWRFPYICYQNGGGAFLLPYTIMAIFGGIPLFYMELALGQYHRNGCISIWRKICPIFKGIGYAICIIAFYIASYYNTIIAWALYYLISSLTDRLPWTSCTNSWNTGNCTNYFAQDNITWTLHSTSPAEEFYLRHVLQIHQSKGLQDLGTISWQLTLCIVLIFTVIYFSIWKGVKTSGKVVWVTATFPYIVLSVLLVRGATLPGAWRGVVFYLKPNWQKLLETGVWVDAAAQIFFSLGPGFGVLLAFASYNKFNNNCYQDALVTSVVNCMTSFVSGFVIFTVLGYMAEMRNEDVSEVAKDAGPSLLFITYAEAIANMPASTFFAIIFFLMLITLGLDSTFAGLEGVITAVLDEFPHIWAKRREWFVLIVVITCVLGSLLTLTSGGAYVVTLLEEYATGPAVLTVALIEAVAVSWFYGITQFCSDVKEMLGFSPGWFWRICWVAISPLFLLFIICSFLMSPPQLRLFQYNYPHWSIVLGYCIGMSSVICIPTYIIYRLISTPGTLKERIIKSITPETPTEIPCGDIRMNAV
Experimental: Characterization of serotonin uptake is performed using synaptosomes isolated in a 0.32 M sucrose buffer from a male Wistar rat cortex. The uptake of radiolabelled serotonin by synaptosomes (100 μg of proteins/point) is allowed by incubating them in a deep well for 15 minutes at 37° C. in presence of test compounds and [3H]5-hydroxytryptamin (0.1 μCi/point).
Synaptosomes and [^3H]5-hydroxytryptamine are prepared in a Krebs buffer pH 7.4 containing 25 mM NaHCO3, 11 mM glucose and 50 μM ascorbic acid. This incubation buffer is oxygenated during 5 minutes before incubation. Basal control is incubated for 15 minutes at 4° C. in order to avoid any uptake. Following this incubation the uptake is stopped by filtration through an “unifilter 96-wells GFB “Packard plate washed with Krebs buffer containing 25 mM NaHCO3 in order to eliminate the free [^3H]5-hydroxytryptamine. The radioactivity associated to the synaptosomes retained onto the unifilter corresponding to the uptake is then measured with a microplate scintillation counter Topcount, Packard using a scintillation liquid microscint 0, Packard.

[4] = system: women with insomnia secondary to perimenopause or menopause; test: Clinical study, number of nocturnal awakenings due to hot flashes; format: in vivo, human; details: 3 mg nightly, Intent-to-Treat; for Nocturnal Awakenings due to Hot Flashes, Change from Baseline, Least Squares Means (SE): ANCOVA; for Nocturnal Awakenings due to Hot Flashes, Observed Value, Least Squares Means (SE): ANOVA
Experimental: (§1) The study was aimed at observing efficacy of eszopiclone 3 mg compared to placebo in the treatment of insomnia secondary to perimenopause or menopause.
(§2) The study was a multicenter, randomized, double-blind, placebo-controlled, parallel-group study. […] The primary method of analysis compared the post-randomization results between the two treatment groups.
(§3) Subjects were women with insomnia secondary to perimenopause or menopause. Subjects were perimenopausal or menopausal and had insomnia symptoms including ≧45 minutes sleep latency (SL) and total sleep time (TST)≦6 hours. Perimenopausal/menopausal symptoms predated the onset of sleep disturbance symptoms. The patient population was predominately Caucasian (77.2%). The mean age was 49, with a range of 40-60.
(§4) A total of 410 subjects were randomized. Among them, 201 received 3 mg of eszopiclone (ESZ) nightly (at bedtime) for four weeks and 209 received matching placebo (PBO).

[5] = system: women with insomnia secondary to perimenopause or menopause; test: Clinical study, Physician Global Assessment; format: in vivo, human; details: Visit 5 (Week 4), 3 mg nightly; for Physician Global Assessment, Observed Value, Least Squares Means (SE): ANOVA
Experimental: as §1, §2, §3, §4
A Physician Global Assessment was administered at Week 4, the end of the double-blind treatment period.

[6] = score 1 = Very much improved to 7 = Very much worse

## N[C@@H]1CC[C@@H](c2ccc(Cl)c(Cl)c2)c2ccccc21 [P, (1R,4S)-trans 4-(3,4-dichlorophenyl)-1,2,3,4-tetrahydro-1-napthalenamine]
mice; 0.03 mg/kg intraperitoneal
  Immobility Duration, individual mice: 129 s and 99 s and 107 s and 159 s and 102 s and 115 s and 122 s and 128 s and 120 s and 96 s
  Immobility Duration, Mean: 118 s
mice; 0.1 mg/kg intraperitoneal
  Immobility Duration, individual mice: 100 s and 103 s and 76 s and 109 s and 56 s and 98 s and 62 s and 119 s and 96 s and 85 s
  Immobility Duration, Mean: 90 s
mice; 0.3 mg/kg intraperitoneal
  Immobility Duration, individual mice: 93 s and 23 s and 102 s and 110 s and 106 s and 98 s and 120 s and 114 s and 109 s and 115 s
  Immobility Duration, Mean: 99 s
mice; 1 mg/kg intraperitoneal
  Immobility Duration, individual mice: 34 sec and 51 sec (2×) and 35 sec and 19 sec and 81 sec and 50 sec and 29 sec and 66 sec and 87 sec
  Immobility Duration, Mean: 50 s
mice; 3 mg/kg intraperitoneal
  Immobility Duration, individual mice: 3 sec and 17 sec and 5 sec and 0 sec (3×) and 40 sec and 26 sec and 12 sec and 49 sec
  Immobility Duration, Mean: 15 s

## N[C@@H]1CC[C@@H](c2ccc(Cl)c(Cl)c2)c2ccccc21 (relative stereo) [P + Q, trans 4-(3,4-dichlorophenyl)-1,2,3,4-tetrahydro-1-napthalenamine]
[1]; Table 6, rat synaptosomes
  IC50: 8.8 nM
[2]; Table 6, rat synaptosomes
  IC50: 7.1 nM

## CNCCCC1c2ccccc2C=Cc2ccccc21 [protriptyline]
[2]; Table 6
  inhibition of DA uptake: — (— <50% inhibition)

## Fc1ccc(C(OCCN2CCN(CCCc3ccccc3)CC2)c2ccc(F)cc2)cc1 [GBR 12909]
[3]
  inhibition of 5-HT uptake: — (— <50% inhibition)
[1]; Table 6, tested initially at 10 μM
  inhibition of NE uptake: — (— <50% inhibition)

## CN(C)CCCN1c2ccccc2CCc2ccccc21 [imipramine]
[1]; read-out: inhibition of NE uptake
  inhibition at 10 µM: < 50%
[2]; Table 6
  inhibition of DA uptake: — (— <50% inhibition)
[2]; read-out: inhibition of DA uptake
  inhibition at 10 µM: < 50%
mice; 10 mg/kg
  Immobility Duration, individual mice: 89 s and 85 s and 73 s and 37 s and 74 s and 95 s and 5 s and 33 s
  Immobility Duration, Mean: 58 s

## CN1CCN(C(=O)O[C@H]2c3nccnc3C(=O)N2c2ccc(Cl)cn2)CC1 [Eszopiclone, (+) 6-(5-chloropyrid-2-yl)-5-(4-methylpiperazin-1-yl)carbonyloxy-7-oxo-6,7-dihydro-5H-pyrrolo[3-4-b]pyrazine]
[4]; DB Average
  Nocturnal Awakenings due to Hot Flashes, Change from Baseline, 25th Percentile: −1.1
  Nocturnal Awakenings due to Hot Flashes, Change from Baseline, 75th Percentile: 0.0
  Nocturnal Awakenings due to Hot Flashes, Change from Baseline, Maximum: 1.5
  Nocturnal Awakenings due to Hot Flashes, Change from Baseline, Mean (SD): −0.7 (1.0)
  Nocturnal Awakenings due to Hot Flashes, Change from Baseline, Median: −0.5
  Nocturnal Awakenings due to Hot Flashes, Change from Baseline, Minimum: −6.0
  Nocturnal Awakenings due to Hot Flashes, Observed Value, 25th Percentile: 0.0
  Nocturnal Awakenings due to Hot Flashes, Observed Value, 75th Percentile: 0.9
  Nocturnal Awakenings due to Hot Flashes, Observed Value, Maximum: 2.7
  Nocturnal Awakenings due to Hot Flashes, Observed Value, Mean (SD): 0.5 (0.6)
  Nocturnal Awakenings due to Hot Flashes, Observed Value, Median: 0.2
  Nocturnal Awakenings due to Hot Flashes, Observed Value, Minimum: 0.0
  Nocturnal Awakenings due to Hot Flashes, Change from Baseline, Least Squares Means (SE): −0.7 (0.1)
  Nocturnal Awakenings due to Hot Flashes, Observed Value, Least Squares Means (SE): 0.5 (0.1)
[4]; Week 1
  Nocturnal Awakenings due to Hot Flashes, Change from Baseline, 25th Percentile: −1.2
  Nocturnal Awakenings due to Hot Flashes, Change from Baseline, 75th Percentile: 0.0
  Nocturnal Awakenings due to Hot Flashes, Change from Baseline, Maximum: 0.8
  Nocturnal Awakenings due to Hot Flashes, Change from Baseline, Mean (SD): −0.7 (1.0)
  Nocturnal Awakenings due to Hot Flashes, Change from Baseline, Median: −0.5
  Nocturnal Awakenings due to Hot Flashes, Change from Baseline, Minimum: −6.0
  Nocturnal Awakenings due to Hot Flashes, Observed Value, 25th Percentile: 0.0
  Nocturnal Awakenings due to Hot Flashes, Observed Value, 75th Percentile: 1.0
  Nocturnal Awakenings due to Hot Flashes, Observed Value, Maximum: 3.0
  Nocturnal Awakenings due to Hot Flashes, Observed Value, Mean (SD): 0.5 (0.7)
  Nocturnal Awakenings due to Hot Flashes, Observed Value, Median: 0.2
  Nocturnal Awakenings due to Hot Flashes, Observed Value, Minimum: 0.0
  Nocturnal Awakenings due to Hot Flashes, Change from Baseline, Least Squares Means (SE): −0.7 (0.1)
  Nocturnal Awakenings due to Hot Flashes, Observed Value, Least Squares Means (SE): 0.5 (0.1)
[4]; Week 1, listed as ESZ
  Nocturnal Awakenings due to Hot Flashes, Observed Value, Least Squares Means (SE): 0.3
[4]; Week 2
  Nocturnal Awakenings due to Hot Flashes, Change from Baseline, 25th Percentile: −1.0
  Nocturnal Awakenings due to Hot Flashes, Change from Baseline, 75th Percentile: 0.0
  Nocturnal Awakenings due to Hot Flashes, Change from Baseline, Maximum: 2.0
  Nocturnal Awakenings due to Hot Flashes, Change from Baseline, Mean (SD): −0.7 (1.0)
  Nocturnal Awakenings due to Hot Flashes, Change from Baseline, Median: −0.6
  Nocturnal Awakenings due to Hot Flashes, Change from Baseline, Minimum: −6.0
  Nocturnal Awakenings due to Hot Flashes, Observed Value, 25th Percentile: 0.0
  Nocturnal Awakenings due to Hot Flashes, Observed Value, 75th Percentile: 1.0
  Nocturnal Awakenings due to Hot Flashes, Observed Value, Maximum: 3.0
  Nocturnal Awakenings due to Hot Flashes, Observed Value, Mean (SD): 0.5 (0.7)
  Nocturnal Awakenings due to Hot Flashes, Observed Value, Median: 0.0
  Nocturnal Awakenings due to Hot Flashes, Observed Value, Minimum: 0.0
  Nocturnal Awakenings due to Hot Flashes, Change from Baseline, Least Squares Means (SE): −0.6 (0.1)
  Nocturnal Awakenings due to Hot Flashes, Observed Value, Least Squares Means (SE): 0.5 (0.1)
[4]; Week 3
  Nocturnal Awakenings due to Hot Flashes, Change from Baseline, 25th Percentile: −1.0
  Nocturnal Awakenings due to Hot Flashes, Change from Baseline, 75th Percentile: 0.0
  Nocturnal Awakenings due to Hot Flashes, Change from Baseline, Maximum: 1.5
  Nocturnal Awakenings due to Hot Flashes, Change from Baseline, Mean (SD): −0.7 (1.1)
  Nocturnal Awakenings due to Hot Flashes, Change from Baseline, Median: −0.4
  Nocturnal Awakenings due to Hot Flashes, Change from Baseline, Minimum: −6.0
  Nocturnal Awakenings due to Hot Flashes, Observed Value, 25th Percentile: 0.0
  Nocturnal Awakenings due to Hot Flashes, Observed Value, 75th Percentile: 1.0
  Nocturnal Awakenings due to Hot Flashes, Observed Value, Maximum: 3.0
  Nocturnal Awakenings due to Hot Flashes, Observed Value, Mean (SD): 0.5 (0.7)
  Nocturnal Awakenings due to Hot Flashes, Observed Value, Median: 0.0
  Nocturnal Awakenings due to Hot Flashes, Observed Value, Minimum: 0.0
  Nocturnal Awakenings due to Hot Flashes, Change from Baseline, Least Squares Means (SE): −0.6 (0.1)
  Nocturnal Awakenings due to Hot Flashes, Observed Value, Least Squares Means (SE): 0.5 (0.1)
[4]; Week 4
  Nocturnal Awakenings due to Hot Flashes, Change from Baseline, 25th Percentile: −1.3
  Nocturnal Awakenings due to Hot Flashes, Change from Baseline, 75th Percentile: 0.0
  Nocturnal Awakenings due to Hot Flashes, Change from Baseline, Maximum: 2.1
  Nocturnal Awakenings due to Hot Flashes, Change from Baseline, Mean (SD): −0.8 (1.2)
  Nocturnal Awakenings due to Hot Flashes, Change from Baseline, Median: −0.7
  Nocturnal Awakenings due to Hot Flashes, Change from Baseline, Minimum: −6.0
  Nocturnal Awakenings due to Hot Flashes, Observed Value, 25th Percentile: 0.0
  Nocturnal Awakenings due to Hot Flashes, Observed Value, 75th Percentile: 1.0
  Nocturnal Awakenings due to Hot Flashes, Observed Value, Maximum: 3.6
  Nocturnal Awakenings due to Hot Flashes, Observed Value, Mean (SD): 0.4 (0.7)
  Nocturnal Awakenings due to Hot Flashes, Observed Value, Median: 0.0
  Nocturnal Awakenings due to Hot Flashes, Observed Value, Minimum: 0.0
  Nocturnal Awakenings due to Hot Flashes, Change from Baseline, Least Squares Means (SE): −0.7 (0.1)
  Nocturnal Awakenings due to Hot Flashes, Observed Value, Least Squares Means (SE): 0.4 (0.1)
[5]
  Physician Global Assessment, Change from Baseline, 25th Percentile: −2.0
  Physician Global Assessment, Change from Baseline, 75th Percentile: 0.0
  Physician Global Assessment, Change from Baseline, Maximum: 6.0
  Physician Global Assessment, Change from Baseline, Mean (SD): −1.0 (1.4)
  Physician Global Assessment, Change from Baseline, Median: −1.0
  Physician Global Assessment, Change from Baseline, Minimum: −4.0
  Physician Global Assessment, Observed Value, Least Squares Means (SE): 2.7 (0.1)
[5]; ANCOVA
  Physician Global Assessment, Change from Baseline, Least Squares Means (SE): −0.9 (0.1)
[5]; listed as ESZ
  Physician Global Assessment, Observed Value, Least Squares Means (SE): 2.7
[5]; [6]
  Physician Global Assessment, Observed Value, 25th Percentile: 2.0
  Physician Global Assessment, Observed Value, 75th Percentile: 4.0
  Physician Global Assessment, Observed Value, Maximum: 6.0
  Physician Global Assessment, Observed Value, Mean (SD): 2.6 (1.2)
  Physician Global Assessment, Observed Value, Median: 2.0
  Physician Global Assessment, Observed Value, Minimum: 1.0
